According to ChEMBL document CHEMBL6121004, “Design, synthesis, and biological evaluation of Ponatinib-based N-Phenylpyrimidine-2-amine derivatives as novel fibroblast growth factor receptor 4 (FGFR4) selective inhibitors” (Eur J Med Chem, 2025):
The source made the active and inactive calls. The rule behind the calls is not given here.

Key:
[1] = Antiproliferative activity against human L02 cells assessed as inhibition of cell proliferation incubated for 72 hrs by MTT assay; format: toxicity, cell-based
[2] = system: Huh-7; assay: Induction of apoptosis in human Huh-7 cells assessed as viable cells at 0.5 uM incubated for 48 hrs by annexin V-FITC/propidium iodide staining based flow cytometry analysis (reference value: 84.91%); format: functional; details: read-out: Activity
[3] = system: Huh-7; assay: Induction of apoptosis in human Huh-7 cells assessed as viable cells at 1 uM incubated for 48 hrs by annexin V-FITC/propidium iodide staining based flow cytometry analysis (reference value: 84.91%); format: functional; details: read-out: Activity
[4] = system: Huh-7; assay: Induction of apoptosis in human Huh-7 cells assessed as early apoptotic cells at 1 uM incubated for 48 hrs by annexin V-FITC/propidium iodide staining based flow cytometry analysis (reference value: 4.59%); format: functional
[5] = system: Huh-7; assay: Induction of apoptosis in human Huh-7 cells assessed as viable cells at 0.1 uM incubated for 48 hrs by annexin V-FITC/propidium iodide staining based flow cytometry analysis (reference value: 84.91%); format: functional; details: read-out: Activity
[6] = system: Huh-7; assay: Induction of apoptosis in human Huh-7 cells assessed as necrotic cells at 0.1 uM incubated for 48 hrs by annexin V-FITC/propidium iodide staining based flow cytometry analysis (reference value: 5.20%); format: functional
[7] = system: Hep 3B2; assay: Induction of apoptosis in human Hep3B cells assessed as early apoptotic cells at 0.5 uM incubated for 48 hrs by annexin V-FITC/propidium iodide staining based flow cytometry analysis (reference value: 4.69%); format: functional
[8] = system: Hep 3B2; assay: Induction of apoptosis in human Hep3B cells assessed as late apoptotic cells at 1 uM incubated for 48 hrs by annexin V-FITC/propidium iodide staining based flow cytometry analysis (reference value: 5.20%); format: functional
[9] = system: Hep 3B2; assay: Induction of apoptosis in human Hep3B cells assessed as late apoptotic cells at 0.25 uM incubated for 48 hrs by annexin V-FITC/propidium iodide staining based flow cytometry analysis (reference value: 5.20%); format: functional
[10] = system: Hep 3B2; assay: Induction of apoptosis in human Hep3B cells assessed as necrotic cells at 0.25 uM incubated for 48 hrs by annexin V-FITC/propidium iodide staining based flow cytometry analysis (reference value: 5.20%); format: functional
[11] = system: Hep3B; assay: Inhibition of MAPK phosphorylation in human Hep3B cells incubated for 48 hrs by Western blot analysis; format: cell-based; details: dose 0.25-1 µM
[12] = system: Hep 3B2; assay: Effect on FGFR4 level in human Hep3B cells at 0.25 to 1 uM incubated for 48 hrs by Western blot analysis; format: functional, cell-based; details: dose 0.25-1 µM
[13] = AUC (0 to t) in BALB/c male mouse at 1 mg/kg, iv measured upto 24 hrs by LC-MS/MS analysis; format: ADME, organism-based; details: in vivo
[14] = Cmax in BALB/c male mouse at 10 mg/kg, po measured upto 24 hrs by LC-MS/MS analysis; format: ADME, organism-based; details: in vivo
[15] = Clearance in BALB/c male mouse at 1 mg/kg, iv measured upto 24 hrs by LC-MS/MS analysis; format: ADME, organism-based; details: in vivo
[16] = Half life in BALB/c male mouse at 1 mg/kg, iv measured upto 24 hrs by LC-MS/MS analysis; format: ADME, organism-based; details: in vivo
[17] = Half life in BALB/c male mouse at 10 mg/kg, po measured upto 24 hrs by LC-MS/MS analysis; format: ADME, organism-based; details: in vivo
[18] = system: Huh-7; assay: Antitumor activity against human Huh-7 cells xenografted in nude mouse assessed as tumor growth inhibition at 25 mg/kg, ip administered for 15 days; format: functional; details: Huh-7, 360 h, time 15 day, read-out: TGI
[19] = system: Huh-7; assay: Antitumor activity against human Huh-7 cells xenografted in nude mouse assessed as tumor growth inhibition at 50 mg/kg, ip administered for 15 days; format: functional; details: Huh-7, 360 h, time 15 day, read-out: TGI
[20] = Toxicity in male nude mouse implanted with human Huh-7 cells assessed as liver damage at 12.5 to 50 mg/kg, ip administered for 15 days; format: organism-based; details: in vivo, 360 h, dose 12.5-50 mg/kg, time 15 day
[21] = system: MDA-MB-231; assay: cells; details: Homo sapiens, MDA-MB-231, 72 h
Description: Antiproliferative activity against human MDA-MB-231 cells assessed as inhibition of cell proliferation incubated for 72 hrs by MTT assay

- AUC(0-t) at 24 h [13]: 241 ng·h/mL
- Cmax [14]: 91.3 ng/mL
- clearance [15]: 67.9 mL/min/kg
- half-life [16]: 47.4 min
- half-life [17]: 84 min
- IC50 [21]: 5.6 µM
Structure (SMILES): C=CC(=O)Nc1cccc(C)c1Nc1ncc(C#Cc2cccc(C(=O)Nc3ccc(CN4CCN(C)CC4)c(C(F)(F)F)c3)c2)cn1
- IC50 at 72 h [1]: > 10 µM
- viability at 0.5 µM [2]: 75.3%
- viability at 1 µM [3]: 63%
- Activity [4]: 2.12%
- viability at 0.1 µM [5]: 88.8%
- Activity [6]: 2.37%
- Activity [7]: 5.73%
- Activity [8]: 22.07%
- Activity [9]: 9.17%
- Activity [10]: 5.62%
- inhibition [11]: Dose-dependent-effect
- Activity [12]: Active
- inhibition in vivo at 25 mg/kg [18]: 50.3%
- inhibition in vivo at 50 mg/kg [19]: 69.8%
- Activity [20]: Non-toxic
